The values below are quoted from earlier work in patent US6416998B1, “Plasmid encoding a modified steroid hormone” (Baylor College of Medicine, priority 1992, dated 2002).

Conditions in all cases: cited from earlier work
The target of one data set is T1, Vitamin D receptor (Homo sapiens, UniProt P11473).
T1 sequence (P11473 1-427): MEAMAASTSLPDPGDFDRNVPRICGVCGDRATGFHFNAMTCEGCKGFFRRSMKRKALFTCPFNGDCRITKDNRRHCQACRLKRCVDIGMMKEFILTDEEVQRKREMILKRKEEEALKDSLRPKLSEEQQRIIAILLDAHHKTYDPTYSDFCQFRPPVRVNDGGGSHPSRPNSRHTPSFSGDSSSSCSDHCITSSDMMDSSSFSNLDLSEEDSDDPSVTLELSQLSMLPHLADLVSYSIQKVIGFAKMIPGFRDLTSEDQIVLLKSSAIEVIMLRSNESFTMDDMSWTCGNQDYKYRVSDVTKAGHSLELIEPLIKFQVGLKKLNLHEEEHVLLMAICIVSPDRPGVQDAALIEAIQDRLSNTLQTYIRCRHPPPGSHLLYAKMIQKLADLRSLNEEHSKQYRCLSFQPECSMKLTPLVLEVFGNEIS

Data set [1] concerns the target T2, chicken progesterone receptor (Gallus gallus, UniProt P07812).
T2 sequence (P07812 1-786): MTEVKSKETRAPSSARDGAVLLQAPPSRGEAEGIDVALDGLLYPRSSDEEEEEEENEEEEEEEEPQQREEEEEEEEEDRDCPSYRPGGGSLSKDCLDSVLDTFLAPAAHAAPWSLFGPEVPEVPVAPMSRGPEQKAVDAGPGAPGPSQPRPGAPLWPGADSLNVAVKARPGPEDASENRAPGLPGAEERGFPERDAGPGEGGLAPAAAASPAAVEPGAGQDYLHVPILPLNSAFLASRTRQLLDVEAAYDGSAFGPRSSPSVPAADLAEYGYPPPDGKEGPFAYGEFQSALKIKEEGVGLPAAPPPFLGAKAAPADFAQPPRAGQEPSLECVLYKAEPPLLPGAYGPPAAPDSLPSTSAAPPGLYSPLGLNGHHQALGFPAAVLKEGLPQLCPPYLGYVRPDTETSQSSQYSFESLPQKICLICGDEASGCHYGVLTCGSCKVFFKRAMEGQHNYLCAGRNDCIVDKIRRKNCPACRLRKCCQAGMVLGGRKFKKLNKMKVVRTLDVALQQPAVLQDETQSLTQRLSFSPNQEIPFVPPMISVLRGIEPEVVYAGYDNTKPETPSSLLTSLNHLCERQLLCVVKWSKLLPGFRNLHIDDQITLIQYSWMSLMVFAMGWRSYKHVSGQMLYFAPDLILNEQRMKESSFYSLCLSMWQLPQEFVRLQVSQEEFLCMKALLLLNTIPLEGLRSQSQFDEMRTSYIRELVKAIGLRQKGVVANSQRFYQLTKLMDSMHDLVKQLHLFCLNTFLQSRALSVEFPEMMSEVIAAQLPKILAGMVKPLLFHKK

The target of data set [2] is T3, rat progesterone receptor (Rattus norvegicus, UniProt Q63449).
T3 sequence (Q63449 1-923): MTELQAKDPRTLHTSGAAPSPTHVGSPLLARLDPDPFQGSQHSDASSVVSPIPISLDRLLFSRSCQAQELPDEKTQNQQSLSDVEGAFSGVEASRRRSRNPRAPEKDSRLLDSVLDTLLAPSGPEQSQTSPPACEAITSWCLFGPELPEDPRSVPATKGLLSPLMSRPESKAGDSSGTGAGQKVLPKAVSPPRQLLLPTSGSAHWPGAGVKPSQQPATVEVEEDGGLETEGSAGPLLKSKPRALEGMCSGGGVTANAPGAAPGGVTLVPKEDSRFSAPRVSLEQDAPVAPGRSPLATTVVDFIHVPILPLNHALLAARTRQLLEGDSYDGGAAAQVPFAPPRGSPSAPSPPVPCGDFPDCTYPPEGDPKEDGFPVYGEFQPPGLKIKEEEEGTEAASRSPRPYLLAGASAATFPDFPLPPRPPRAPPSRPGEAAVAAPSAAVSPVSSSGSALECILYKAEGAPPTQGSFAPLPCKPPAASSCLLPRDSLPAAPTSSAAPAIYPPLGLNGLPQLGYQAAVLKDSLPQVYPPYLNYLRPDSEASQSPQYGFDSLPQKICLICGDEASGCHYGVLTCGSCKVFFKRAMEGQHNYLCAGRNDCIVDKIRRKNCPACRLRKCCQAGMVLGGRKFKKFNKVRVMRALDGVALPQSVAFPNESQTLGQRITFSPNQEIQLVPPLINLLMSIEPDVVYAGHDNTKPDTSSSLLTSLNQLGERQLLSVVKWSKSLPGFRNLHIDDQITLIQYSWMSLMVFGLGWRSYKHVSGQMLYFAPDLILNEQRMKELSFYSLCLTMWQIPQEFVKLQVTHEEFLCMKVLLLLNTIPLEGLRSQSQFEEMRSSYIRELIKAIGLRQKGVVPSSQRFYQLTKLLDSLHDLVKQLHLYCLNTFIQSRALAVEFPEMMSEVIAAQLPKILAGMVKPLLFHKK

The target in data set [3] is T4, human progesterone receptor (Homo sapiens, UniProt P06401).
T4 sequence (P06401 1-933): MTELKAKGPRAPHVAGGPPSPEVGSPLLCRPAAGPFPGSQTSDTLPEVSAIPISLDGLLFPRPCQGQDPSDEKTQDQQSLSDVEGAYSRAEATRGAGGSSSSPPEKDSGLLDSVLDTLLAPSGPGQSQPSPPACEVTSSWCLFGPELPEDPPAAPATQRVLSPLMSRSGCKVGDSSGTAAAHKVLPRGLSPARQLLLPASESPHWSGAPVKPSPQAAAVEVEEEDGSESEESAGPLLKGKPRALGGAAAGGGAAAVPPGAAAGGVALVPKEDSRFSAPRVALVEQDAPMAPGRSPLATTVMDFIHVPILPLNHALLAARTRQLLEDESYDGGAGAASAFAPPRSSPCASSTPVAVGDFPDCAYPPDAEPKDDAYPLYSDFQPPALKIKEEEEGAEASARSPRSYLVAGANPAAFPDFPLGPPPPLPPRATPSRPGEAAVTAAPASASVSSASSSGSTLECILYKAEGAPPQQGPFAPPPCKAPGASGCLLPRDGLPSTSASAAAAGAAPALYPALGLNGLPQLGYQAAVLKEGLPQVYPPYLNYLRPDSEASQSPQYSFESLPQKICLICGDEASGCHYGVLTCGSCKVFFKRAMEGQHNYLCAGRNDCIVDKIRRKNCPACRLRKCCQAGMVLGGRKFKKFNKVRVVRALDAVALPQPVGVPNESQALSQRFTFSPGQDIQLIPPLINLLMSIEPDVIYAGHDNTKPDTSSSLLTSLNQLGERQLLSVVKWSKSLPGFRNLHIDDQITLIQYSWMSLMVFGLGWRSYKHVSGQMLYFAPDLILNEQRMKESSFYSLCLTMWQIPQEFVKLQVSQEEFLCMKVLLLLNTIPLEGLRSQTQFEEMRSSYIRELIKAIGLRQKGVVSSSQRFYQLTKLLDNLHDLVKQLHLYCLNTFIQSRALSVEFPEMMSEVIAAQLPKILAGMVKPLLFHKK

SMILES strings stand for the structures.

Take `C=C1CC[C@H](O)C/C1=C/C=C1\CCC[C@]2(C)[C@@H]([C@H](C)CCC(O)C(C)(C)O)CC[C@@H]12` (stereo partly shown) [24,25-dihydroxy-Vitamin D]: on Vitamin D receptor, the receptor activation entry is “does not”.
For the compound `CC(=O)[C@H]1CC[C@H]2[C@@H]3CC[C@H]4CC(=O)CC[C@]4(C)[C@H]3CC[C@]12C` [5α-pregnane-3,20-dione], the values for the binding result in data set [1], in data set [2] and in data set [3] were “binds extremely well”, “binds extremely well” and “does not bind or binds very poorly”, respectively.
